# From patent US6914045B2, “Glycopeptide antibiotics” (Wyeth Holdings Corporation, priority 2001, dated 2005)
# Tests used:
# Assay in all cases: in vitro antibacterial evaluation, MIC by broth dilution
# Assay type in all cases: cell-based
# Streptococcus sp. = conditions: broth dilution, 18 hours at 35° C.
# Outline: (§1)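 Inoculum 5×10^5 CFU/mL; concentrations 64 to 0.06 μg/mL; MIC defined as lowest inhibitory level. Conducted by broth dilution under NCCLS guidelines.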
# Enterococcus sp. = conditions: broth dilution, 18 hours at 35° C.
# Outline: as §1
# Staphylococcus sp. = conditions: broth dilution, 18 hours at 35° C.
# Outline: as §1
# Escherichia coli = conditions: 18 hours at 35° C.
# Outline: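 Broth dilution in Muller-Hinton II medium per NCCLS standard M7-A2, with an inoculum of 5×10^5 CFU/mL and antibiotic tested over 64-0.06 μg/mL. MIC was taken as the lowest concentration inhibiting visible growth.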
smiles,measurement,setting,value
"CC(c1ccccc1)C1NC(=O)CNC(=O)C(CO)NC(=O)C(C(O)C2CN(c3nc4ccccc4s3)C(=N)N2C2OC(CO)C(O)C(O)C2O)NC(=O)C(C(O)C2CNC(=Nc3nc4ccccc4s3)N2)NC(=O)C(Cc2ccc(OC3OC(CO)C(OC4OC(CO)C(O)C(O)C4O)C(O)C3O)cc2)NC1=O (stereo not drawn) [Example 94, Cyclo[glycyl-β-methylphenylalanyl-O-(4-O-hexopyranosylhexopyranosyl)tyrosyl-3-[2-(1,3-benzothiazol-2-ylimino)imidazolidin-4-yl]seryl-3-[1-(1,3-benzo-thiazol-2-yl)-2-imino-3-hexopyranosylimidazolidin-4-yl]serylseryl]]",MIC Streptococcus agalactiae (GC 4564),Streptococcus sp.,>64 µg/mL
same,MIC Streptococcus pneumoniae (ATCC 6301),Streptococcus sp.,>64 µg/mL
same,MIC Streptococcus pneumoniae (GC 1894),Streptococcus sp.,>64 µg/mL
same,MIC Streptococcus pneumoniae (GC 4565),Streptococcus sp.,>64 µg/mL
same,MIC Streptococcus pyogenes (GC 4563),Streptococcus sp.,>64 µg/mL
same,MIC Streptococcus pneumoniae (ATCC 6301),Streptococcus sp.; strain ATCC 6301,>64 µg/mL
same,MIC Streptococcus pneumoniae (GC 1894),Streptococcus sp.; strain GC 1894,>64 µg/mL
same,MIC Streptococcus pyogenes (GC 4563),Streptococcus sp.; strain GC 4563,>64 µg/mL
same,MIC Streptococcus agalactiae (GC 4564),Streptococcus sp.; strain GC 4564,>64 µg/mL
same,MIC Streptococcus pneumoniae (GC 4565),Streptococcus sp.; strain GC 4565,>64 µg/mL
same,MIC Enterococcus avium (GC 4558),Enterococcus sp.; Enterococcus avium (GC 4558),>64 µg/mL
same,MIC Enterococcus faecalis (ATCC 29212),Enterococcus sp.; Enterococcus faecalis (ATCC 29212),>64 µg/mL
same,MIC Enterococcus faecalis (GC 4552),Enterococcus sp.; Enterococcus faecalis (GC 4552),>64 µg/mL
same,MIC Enterococcus faecalis (GC 4553),Enterococcus sp.; Enterococcus faecalis (GC 4553),>64 µg/mL
same,MIC Enterococcus faecalis (GC 4554),Enterococcus sp.; Enterococcus faecalis (GC 4554),>64 µg/mL
same,MIC Enterococcus faecalis (GC 6189),Enterococcus sp.; Enterococcus faecalis (GC 6189),>64 µg/mL
same,MIC Enterococcus faecium (GC 2243),Enterococcus sp.; Enterococcus faecium (GC 2243),>64 µg/mL
same,MIC Enterococcus faecium (GC 4556),Enterococcus sp.; Enterococcus faecium (GC 4556),>64 µg/mL
same,MIC Enterococcus faecium (GC 4557),Enterococcus sp.; Enterococcus faecium (GC 4557),>64 µg/mL
same,MIC Enterococcus avium (GC 4558),Enterococcus sp.,>64 µg/mL
same,MIC Enterococcus faecalis (ATCC 29212),Enterococcus sp.,>64 µg/mL
same,MIC Enterococcus faecalis (GC 2242),Enterococcus sp.,>64 µg/mL
same,MIC Enterococcus faecalis (GC 2691),Enterococcus sp.,>64 µg/mL
same,MIC Enterococcus faecalis (GC 3059),Enterococcus sp.,>64 µg/mL
same,MIC Enterococcus faecalis (GC 4552),Enterococcus sp.,>64 µg/mL
same,MIC Enterococcus faecalis (GC 4553),Enterococcus sp.,>64 µg/mL
same,MIC Enterococcus faecalis (GC 4554),Enterococcus sp.,>64 µg/mL
same,MIC Enterococcus faecalis (GC 6189),Enterococcus sp.,>64 µg/mL
same,MIC Enterococcus faecium (GC 2243),Enterococcus sp.,>64 µg/mL
same,MIC Enterococcus faecium (GC 4556),Enterococcus sp.,>64 µg/mL
same,MIC Enterococcus faecium (GC 4557),Enterococcus sp.,>64 µg/mL
same,MIC Enterococcus faecalis (GC 2242),Enterococcus sp.; strain GC 2242,>64 µg/mL
same,MIC Enterococcus faecalis (GC 2691),Enterococcus sp.; strain GC 2691,>64 µg/mL
same,MIC Enterococcus faecalis (GC 3059),Enterococcus sp.; strain GC 3059,>64 µg/mL
same,MIC Coagulase Negative Staphylococcus (GC 4547),Staphylococcus sp.,>64 µg/mL
same,MIC Coagulase Negative Staphylococcus (GC 4548),Staphylococcus sp.,>64 µg/mL
same,MIC Coagulase Negative Staphylococcus (GC 4549),Staphylococcus sp.,>64 µg/mL
same,MIC Coagulase Negative Staphylococcus (GC 4551),Staphylococcus sp.,>64 µg/mL
same,MIC Staphylococcus aureus-SMITH (GC 4543),Staphylococcus sp.,>64 µg/mL
same,MIC Staphylococcus haemolyticus (GC 4546),Staphylococcus sp.,>64 µg/mL
same,MIC Staphylococcus aureus (ATCC 29213),Staphylococcus sp.; strain ATCC 29213,>64 µg/mL
same,MIC Staphylococcus aureus (GC 1131),Staphylococcus sp.; strain GC 1131,>64 µg/mL
same,MIC Staphylococcus aureus (GC 3051),Staphylococcus sp.; strain GC 3051,>64 µg/mL
same,MIC Staphylococcus aureus (GC 3053),Staphylococcus sp.; strain GC 3053,>64 µg/mL
same,MIC Staphylococcus aureus (GC 4541),Staphylococcus sp.; strain GC 4541,>64 µg/mL
same,MIC Staphylococcus aureus (GC 4542),Staphylococcus sp.; strain GC 4542,>64 µg/mL
same,MIC Staphylococcus aureus-SMITH (GC 4543),Staphylococcus sp.; strain GC 4543,>64 µg/mL
same,MIC Staphylococcus aureus (GC 4544),Staphylococcus sp.; strain GC 4544,>64 µg/mL
same,MIC Staphylococcus aureus (GC 4545),Staphylococcus sp.; strain GC 4545,>64 µg/mL
same,MIC Staphylococcus haemolyticus (GC 4546),Staphylococcus sp.; strain GC 4546,>64 µg/mL
same,MIC Coagulase Negative Staphylococcus (GC 4547),Staphylococcus sp.; strain GC 4547,>64 µg/mL
same,MIC Coagulase Negative Staphylococcus (GC 4548),Staphylococcus sp.; strain GC 4548,>64 µg/mL
same,MIC Coagulase Negative Staphylococcus (GC 4549),Staphylococcus sp.; strain GC 4549,>64 µg/mL
same,MIC Coagulase Negative Staphylococcus (GC 4551),Staphylococcus sp.; strain GC 4551,>64 µg/mL
same,MIC Escherichia coli (ATCC 25922),Escherichia coli,>64 µg/mL
same,MIC Escherichia coli (GC 4559),Escherichia coli,>64 µg/mL
same,MIC Escherichia coli (GC 4560),Escherichia coli,64 µg/mL
